# Experimental data from US20040166079A1, “N-Lauroyl amino acid composition for slimming the human body” (priority 2003, published 2004).
# Test system: normal human dermal fibroblasts
# Experiment: Measurement in vitro of the production of hyaluronic acid (STAINS ALL, 630 nm)
# Format: cell-based
# Details: incubation concentration 10 ng/ml; 5 days
# Experimental: Glycosaminoglycans (GAGs) are the major proteoglycans of the dermis and play an essential role in maintaining the integrity of the skin. Hyaluronic acid is a major nonsulphated GAG which plays an essential role in the hydration of the skin by its capacity to fix up to 1000 times its weight as water. The effect of the products on the hyaluronic acid level was evaluated by a technique in vitro.
# The hyaluronic acid level is measured in cultures of normal human dermal fibroblasts. The cells are incubated for 5 days in the presence of the products solubilized in the incubation medium. At the end of this incubation, the extracellular media in which the hyaluronic acid is secreted are collected. The hyaluronic acid is stained with a specific stain, STAINS ALL ((1-ethyl-2-[3-(1-ethylnaphtho-[1,2-d]thiazolin-2-ylidene)-2-methylpropenyl]naphtho-[1,2-d]thiazolium bromide, SIGMA), which interacts with it to produce a change in the absorption spectrum between 620 and 660 nm; the measurement is made by spectrophotometry. A hyaluronic acid series is prepared in parallel. […]
# Evaluation of the effects: After 5 days of incubation in the presence of the products, the incubation media are collected and incubated in the presence of STAINS ALL. […] The quantification is made by spectrophotometry at 630 nm. […] The results are expressed as extracellular hyaluronic acid relative to the control.
substance,measurement,value
"EGF: reference in the hyaluronic acid production test, 10 ng/ml",Extracellular hyaluronic acid produced (% relative to the control),133%
